Laboratory results: patent publication US11395857B2, “Radiolabeled melanocortin 1 receptor-specific alpha-melanocyte-stimulating hormone analogues for imaging or therapy” (PROVINCIAL HEALTH SERVICES AUTHORITY, priority 2018, dated 2022)
Where two headings read alike, the source gives them in different places.

Assays:
[1] = Biodistribution of 177Lu-labeled αMSH analogues in mice bearing B16F10 mouse melanoma; format: in vivo, C57BL/6J mice; conditions: mouse, iv, total radioactivity, C57BL/6J mice, B16F10 melanoma
Procedure: (§1) The B16-F10 mouse melanoma cells were cultured and inoculated in mice as described in Example 1.
(§2) For biodistribution studies, approximately 1-2 MBq of ^177Lu-labeled αMSH analogues via tail vein under anesthesia. At 1, 4, 24, and 120 h p.i., the mice were euthanized by CO2 inhalation. Organs/tissues were harvested and the radioactivity was measured as described in Example 1.

[2] = tested on: B16F10 mouse melanoma; test: as above; format: in vivo, C57BL/6J mice; conditions: C57BL/6J mice, B16F10 melanoma
Procedure: as §1, §2

[3] = tested on: SK-MEL-1 human melanoma; test: SPECT/CT imaging of mice bearing SK-MEL-1 human melanoma; format: in vivo, NRG mice; conditions: 24 h p.i.
Procedure: SPECT/CT imaging experiments were conducted using the same conditions as described in Example 3. […] (FIG. 6).

tissue uptake at 1 h ([1]; male, seminal glands, 1 h p.i., read-out: Biodistribution, Seminal glands): 0.5 ± 0.11 %ID/g
tissue uptake at 4 h ([1]; male, seminal glands, 4 h p.i., read-out: Biodistribution, Seminal glands): 0.15 ± 0.06 %ID/g
tissue uptake at 24 h ([1]; male, seminal glands, 24 h p.i., read-out: Biodistribution, Seminal glands): 0.04 ± 0.01 %ID/g
tissue uptake at 120 h ([1]; male, seminal glands, 120 h p.i., read-out: Biodistribution, Seminal glands): 0.02 ± 0.01 %ID/g
tissue uptake at 1 h ([1]; male, testes, 1 h p.i., read-out: Biodistribution, Testes): 1.07 ± 0.11 %ID/g
tissue uptake at 4 h ([1]; male, testes, 4 h p.i., read-out: Biodistribution, Testes): 0.4 ± 0.14 %ID/g
tissue uptake at 24 h ([1]; male, testes, 24 h p.i., read-out: Biodistribution, Testes): 0.16 ± 0.02 %ID/g
tissue uptake at 120 h ([1]; male, testes, 120 h p.i., read-out: Biodistribution, Testes): 0.1 ± 0.01 %ID/g
tissue uptake at 1 h ([1]; adrenal glands, 1 h p.i., read-out: Biodistribution, Adrenal glands): 2.9 ± 1.51 %ID/g
tissue uptake at 4 h ([1]; adrenal glands, 4 h p.i., read-out: Biodistribution, Adrenal glands): 0.54 ± 0.48 %ID/g
tissue uptake at 24 h ([1]; adrenal glands, 24 h p.i., read-out: Biodistribution, Adrenal glands): 0.2 ± 0.09 %ID/g
tissue uptake at 120 h ([1]; adrenal glands, 120 h p.i., read-out: Biodistribution, Adrenal glands): 0.18 ± 0.06 %ID/g
tissue uptake at 1 h ([1]; blood, 1 h p.i., read-out: Biodistribution, Blood): 6.87 ± 0.88 %ID/g
tissue uptake at 4 h ([1]; blood, 4 h p.i., read-out: Biodistribution, Blood): 1.41 ± 0.6 %ID/g
tissue uptake at 24 h ([1]; blood, 24 h p.i., read-out: Biodistribution, Blood): 0.05 ± 0.02 %ID/g
tissue uptake at 120 h ([1]; blood, 120 h p.i., read-out: Biodistribution, Blood): 0.01 %ID/g
tissue uptake at 1 h ([1]; bone, 1 h p.i., read-out: Biodistribution, Bone): 0.96 ± 0.18 %ID/g
tissue uptake at 4 h ([1]; bone, 4 h p.i., read-out: Biodistribution, Bone): 0.29 ± 0.11 %ID/g
tissue uptake at 24 h ([1]; bone, 24 h p.i., read-out: Biodistribution, Bone): 0.13 ± 0.03 %ID/g
tissue uptake at 120 h ([1]; bone, 120 h p.i., read-out: Biodistribution, Bone): 0.12 ± 0.04 %ID/g
tissue uptake at 1 h ([1]; brain, 1 h p.i., read-out: Biodistribution, Brain): 0.13 ± 0.01 %ID/g
tissue uptake at 4 h ([1]; brain, 4 h p.i., read-out: Biodistribution, Brain): 0.03 ± 0.02 %ID/g
tissue uptake at 24 h ([1]; brain, 24 h p.i., read-out: Biodistribution, Brain): 0.01 %ID/g
tissue uptake at 120 h ([1]; brain, 120 h p.i., read-out: Biodistribution, Brain): 0.01 %ID/g
tissue uptake at 1 h ([1]; fat, 1 h p.i., read-out: Biodistribution, Fat): 0.43 ± 0.08 %ID/g
tissue uptake at 4 h ([1]; fat, 4 h p.i., read-out: Biodistribution, Fat): 0.12 ± 0.03 %ID/g
tissue uptake at 24 h ([1]; fat, 24 h p.i., read-out: Biodistribution, Fat): 0.03 ± 0.01 %ID/g
tissue uptake at 120 h ([1]; fat, 120 h p.i., read-out: Biodistribution, Fat): 0.02 ± 0.01 %ID/g
tissue uptake at 1 h ([1]; heart, 1 h p.i., read-out: Biodistribution, Heart): 1.93 ± 0.16 %ID/g
tissue uptake at 4 h ([1]; heart, 4 h p.i., read-out: Biodistribution, Heart): 0.45 ± 0.19 %ID/g
tissue uptake at 24 h ([1]; heart, 24 h p.i., read-out: Biodistribution, Heart): 0.08 ± 0.01 %ID/g
tissue uptake at 120 h ([1]; heart, 120 h p.i., read-out: Biodistribution, Heart): 0.05 %ID/g
tissue uptake at 1 h ([1]; intestine, 1 h p.i., read-out: Biodistribution, Intestine): 1.2 ± 0.2 %ID/g
tissue uptake at 4 h ([1]; intestine, 4 h p.i., read-out: Biodistribution, Intestine): 1.53 ± 2.04 %ID/g
tissue uptake at 24 h ([1]; intestine, 24 h p.i., read-out: Biodistribution, Intestine): 0.21 ± 0.05 %ID/g
tissue uptake at 120 h ([1]; intestine, 120 h p.i., read-out: Biodistribution, Intestine): 0.1 ± 0.04 %ID/g
tissue uptake at 1 h ([1]; kidneys, 1 h p.i., read-out: Biodistribution, Kidneys): 12 ± 0.83 %ID/g
tissue uptake at 4 h ([1]; kidneys, 4 h p.i., read-out: Biodistribution, Kidneys): 12.7 ± 3.58 %ID/g
tissue uptake at 24 h ([1]; kidneys, 24 h p.i., read-out: Biodistribution, Kidneys): 6.32 ± 0.43 %ID/g
tissue uptake at 120 h ([1]; kidneys, 120 h p.i., read-out: Biodistribution, Kidneys): 1.43 ± 0.31 %ID/g
tissue uptake at 1 h ([1]; liver, 1 h p.i., read-out: Biodistribution, Liver): 3.65 ± 0.25 %ID/g
tissue uptake at 4 h ([1]; liver, 4 h p.i., read-out: Biodistribution, Liver): 3.58 ± 0.85 %ID/g
tissue uptake at 24 h ([1]; liver, 24 h p.i., read-out: Biodistribution, Liver): 2.59 ± 0.31 %ID/g
tissue uptake at 120 h ([1]; liver, 120 h p.i., read-out: Biodistribution, Liver): 1.25 ± 0.51 %ID/g
tissue uptake at 1 h ([1]; lungs, 1 h p.i., read-out: Biodistribution, Lungs): 6.71 ± 3.02 %ID/g
tissue uptake at 4 h ([1]; lungs, 4 h p.i., read-out: Biodistribution, Lungs): 2.34 ± 0.63 %ID/g
tissue uptake at 24 h ([1]; lungs, 24 h p.i., read-out: Biodistribution, Lungs): 0.33 ± 0.08 %ID/g
tissue uptake at 120 h ([1]; lungs, 120 h p.i., read-out: Biodistribution, Lungs): 0.14 ± 0.08 %ID/g
tissue uptake at 1 h ([1]; muscle, 1 h p.i., read-out: Biodistribution, Muscle): 0.75 ± 0.09 %ID/g
tissue uptake at 4 h ([1]; muscle, 4 h p.i., read-out: Biodistribution, Muscle): 0.18 ± 0.09 %ID/g
tissue uptake at 24 h ([1]; muscle, 24 h p.i., read-out: Biodistribution, Muscle): 0.03 ± 0.01 %ID/g
tissue uptake at 120 h ([1]; muscle, 120 h p.i., read-out: Biodistribution, Muscle): 0.02 %ID/g
tissue uptake at 1 h ([1]; pancreas, 1 h p.i., read-out: Biodistribution, Pancreas): 1.13 ± 0.24 %ID/g
tissue uptake at 4 h ([1]; pancreas, 4 h p.i., read-out: Biodistribution, Pancreas): 0.31 ± 0.08 %ID/g
tissue uptake at 24 h ([1]; pancreas, 24 h p.i., read-out: Biodistribution, Pancreas): 0.08 ± 0.02 %ID/g
tissue uptake at 120 h ([1]; pancreas, 120 h p.i., read-out: Biodistribution, Pancreas): 0.05 ± 0.01 %ID/g
tissue uptake at 1 h ([1]; spleen, 1 h p.i., read-out: Biodistribution, Spleen): 2.06 ± 0.21 %ID/g
tissue uptake at 4 h ([1]; spleen, 4 h p.i., read-out: Biodistribution, Spleen): 1.02 ± 0.27 %ID/g
tissue uptake at 24 h ([1]; spleen, 24 h p.i., read-out: Biodistribution, Spleen): 0.64 ± 0.09 %ID/g
tissue uptake at 120 h ([1]; spleen, 120 h p.i., read-out: Biodistribution, Spleen): 0.35 ± 0.15 %ID/g
tissue uptake at 1 h ([1]; stomach, 1 h p.i., read-out: Biodistribution, Stomach): 0.74 ± 0.18 %ID/g
tissue uptake at 4 h ([1]; stomach, 4 h p.i., read-out: Biodistribution, Stomach): 2.33 ± 4.11 %ID/g
tissue uptake at 24 h ([1]; stomach, 24 h p.i., read-out: Biodistribution, Stomach): 0.42 ± 0.13 %ID/g
tissue uptake at 120 h ([1]; stomach, 120 h p.i., read-out: Biodistribution, Stomach): 0.2 ± 0.09 %ID/g
tissue uptake at 1 h ([1]; thyroid, 1 h p.i., read-out: Biodistribution, Thyroid): 2.47 ± 0.26 %ID/g
tissue uptake at 4 h ([1]; thyroid, 4 h p.i., read-out: Biodistribution, Thyroid): 1.66 ± 0.42 %ID/g
tissue uptake at 24 h ([1]; thyroid, 24 h p.i., read-out: Biodistribution, Thyroid): 1.59 ± 0.15 %ID/g
tissue uptake at 120 h ([1]; thyroid, 120 h p.i., read-out: Biodistribution, Thyroid): 1.03 ± 0.24 %ID/g
tissue to tissue ratio at 1 h ([1]; tumour/blood, 1 h p.i., read-out: Tumour/blood): 3.58 ± 0.31
tissue to tissue ratio at 4 h ([1]; tumour/blood, 4 h p.i., read-out: Tumour/blood): 24.3 ± 9.37
tissue to tissue ratio at 24 h ([1]; tumour/blood, 24 h p.i., read-out: Tumour/blood): 397 ± 123
tissue to tissue ratio at 120 h ([1]; tumour/blood, 120 h p.i., read-out: Tumour/blood): 339 ± 149
tissue to tissue ratio at 1 h ([1]; tumour/kidney, 1 h p.i., read-out: Tumour/kidney): 2.04 ± 0.15
tissue to tissue ratio at 4 h ([1]; tumour/kidney, 4 h p.i., read-out: Tumour/kidney): 2.47 ± 0.8
tissue to tissue ratio at 24 h ([1]; tumour/kidney, 24 h p.i., read-out: Tumour/kidney): 2.91 ± 0.2
tissue to tissue ratio at 120 h ([1]; tumour/kidney, 120 h p.i., read-out: Tumour/kidney): 1.89 ± 0.37
tissue to tissue ratio at 1 h ([1]; tumour/muscle, 1 h p.i., read-out: Tumour/muscle): 32.9 ± 2.98
tissue to tissue ratio at 4 h ([1]; tumour/muscle, 4 h p.i., read-out: Tumour/muscle): 194 ± 82.7
tissue to tissue ratio at 24 h ([1]; tumour/muscle, 24 h p.i., read-out: Tumour/muscle): 556 ± 108
tissue to tissue ratio at 120 h ([1]; tumour/muscle, 120 h p.i., read-out: Tumour/muscle): 173 ± 19
excreta dose per gram or mL at 1 h ([1]; urine, 1 h p.i.): 158 ± 83.1 %ID/g
excreta dose per gram or mL at 4 h ([1]; urine, 4 h p.i.): 124 ± 8.4 %ID/g
excreta dose per gram or mL at 24 h ([1]; urine, 24 h p.i.): 4.39 ± 2.89 %ID/g
excreta dose per gram or mL at 120 h ([1]; urine, 120 h p.i.): 1.11 ± 0.72 %ID/g
Biodistribution, B16F10 tumour ([2]; 1 h p.i.): 24.4 ± 1.76 % ID/g
Biodistribution, B16F10 tumour ([2]; 4 h p.i.): 29.7 ± 5.23 % ID/g
Biodistribution, B16F10 tumour ([2]; 24 h p.i.): 18.4 ± 1.35 % ID/g
Biodistribution, B16F10 tumour ([2]; 120 h p.i.): 2.63 ± 0.21 % ID/g
Tumour uptake / retention in SPECT images [3]: lower tumour uptake was observed
SMILES: CCCC[C@H](NC(=O)CN1CCC(NC(=O)[C@H](CCCCNC(=O)CN2CCN(CC(=O)O)CCN(CC(=O)O)CCN(CC(=O)O)CC2)NC(=O)[C@H](CCC(=O)O)NC(=O)CCCc2ccc(I)cc2)CC1)C(=O)N[C@H]1CC(=O)NCCCC[C@@H](C(N)=O)N(C)C(=O)[C@H](Cc2c[nH]c3ccccc23)NC(=O)[C@H](CCCNC(=N)N)N(C)C(=O)[C@@H](Cc2ccccc2)NC(=O)[C@H](Cc2c[nH]cn2)NC1=O [^177Lu-labeled CCZ01118, metal not drawn]
